Results published in BigSolDB 2.1.

CCn1cc(C(=O)O)c(=O)c2cc(F)c(N3CCNC(C)C3)c(F)c21.Cl (stereo not given)
solubility (mole fraction)
Settings | in ethanol | in water
296 K | – | 0.00088
298.2 K | 3e-05 | 0.0009
303.2 K | 3.2e-05 | –
308.2 K | 3.8e-05 | –
311.7 K | – | 0.00099
313.2 K | 4.1e-05 | –
316.3 K | – | 0.00104
318.2 K | 4.4e-05 | –
318.9 K | – | 0.0011
320.5 K | – | 0.00112
323.2 K | 5e-05 | –
328.3 K | – | 0.00121
335.9 K | – | 0.00129
338.7 K | – | 0.00134
340.7 K | – | 0.00138
344.2 K | – | 0.00145

CCn1nc(C(=O)O)c(=O)c2cc3c(cc21)OCO3
Settings | solubility (mole fraction)
in ethanol, 300.2 K | 5e-05
in ethanol, 303.1 K | 6e-05
in ethanol, 311.4 K | 8e-05
in ethanol, 315.1 K | 0.0001
in ethanol, 319.5 K | 0.00011
in ethanol, 321.6 K | 0.00013
in ethanol, 325.6 K | 0.00015
in ethanol, 329.1 K | 0.00018
in ethanol, 334 K | 0.0002
in ethanol, 337.2 K | 0.00024
in ethanol, 339.8 K | 0.00028
in ethanol, 342.8 K | 0.00031
in ethanol, 345.6 K | 0.00037
in water, 298.2 K | 4.2e-06
in water, 303.2 K | 5e-06
in water, 308.2 K | 5.4e-06
in water, 313.2 K | 5.9e-06
in water, 318.2 K | 7.1e-06
in water, 323.2 K | 9.9e-06

CC1CCc2cc(F)cc3c(=O)c(C(=O)O)cn1c23 (stereo not given)
Settings | solubility (mole fraction)
in ethanol, 301.9 K | 0.00015
in ethanol, 309.9 K | 0.00017
in ethanol, 315.2 K | 0.00023
in ethanol, 320.7 K | 0.00034
in ethanol, 328.7 K | 0.00053
in ethanol, 331.7 K | 0.00062
in ethanol, 335.5 K | 0.00075
in ethanol, 339.1 K | 0.00085
in ethanol, 340.5 K | 0.00091
in ethanol, 342.1 K | 0.00096
in ethanol, 344.2 K | 0.00114
in ethanol, 345.5 K | 0.0012
in water, 298.2 K | 2.1e-05
in water, 303.2 K | 2.3e-05
in water, 308.2 K | 2.6e-05
in water, 313.2 K | 2.8e-05
in water, 318.2 K | 3.2e-05
in water, 323.2 K | 3.8e-05

CCn1cc(C(=O)O)c(=O)c2cc(F)c(N3CCNCC3)cc21
in water
Settings | solubility (mole fraction)
303.2 K | 7.3e-06
308.2 K | 9.1e-06
313.2 K | 1.12e-05
318.2 K | 1.37e-05
323.2 K | 1.7e-05
328.2 K | 2.05e-05
